How the values were obtained:
Assay type in all cases: in vivo
[1] = test system: Two-spotted spider mite (Tetranychus urticae); assay: Acaricidal action on two-spotted spider mite (kidney bean leaf disk spray); settings: 500 ppm, adult females, 25° C., two days after treatment
Method in brief: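 Kidney bean leaf disks (2 cm) carrying adult female T. urticae were sprayed with compound dispersion at 500 ppm and held at 25 °C. Dead mites counted 2 days later and corrected mortality calculated against untreated plots; 10 adults per plot, in duplicate.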

[2] = test system: Small brown planthopper (Laodelphax striatellus); assay: Insecticidal test on small brown planthopper (rice seedling dip); settings: 500 ppm, rice seedlings dipped 30 seconds, ten 3rd-instar larvae, 8 days after inoculation
Text: Insecticidal Test on Small Brown Planthopper (Laodelphax striatellus)
The benzimidazole compounds represented by the general formula (1) of the present invention or salts thereof were separately dispersed in water and diluted to 500 ppm. Rice plant seedlings (variety: Nihonbare) were dipped in the agrochemical dispersions for 30 seconds. After air-dried, each seedling was put into a separate glass test tube and inoculated with ten 3rd-instar larvae of small brown planthopper, and then the glass test tubes were capped with cotton plugs. At 8 days after the inoculation, survival rates were calculated from the numbers of surviving larvae and dead larvae, the corrected mortality rate was calculated according to the formula shown below, and the insecticidal efficacy was evaluated according to the criteria shown below. Corrected mortality rate (%)=(Survival rate in a non-treatment plot−Survival rate in a treatment plot)/(Survival rate in a non-treatment plot)×100 [Expression 2] Criteria: • A: the corrected mortality rate is 100%. • B: the corrected mortality rate is 90 to 99%. • C: the corrected mortality rate is 80 to 89%. • D: the corrected mortality rate is 50 to 79%.

[3] = test system: Diamondback moth (Plutella xylostella); assay: Insecticidal test on diamondback moth (dip of Chinese cabbage seedlings with laid eggs); settings: 500 ppm, seedlings with laid eggs dipped about 30 seconds, 25° C., 6 days after dip treatment
Text: Insecticidal Test on Diamondback Moth (Plutella xylostella)
Adults of diamondback moth were released onto Chinese cabbage seedlings and allowed to lay eggs thereon. At 2 days after the release of the adults, the Chinese cabbage seedlings with laid eggs were dipped for about 30 seconds in agrochemical dispersions diluted to 500 ppm, each of which contained a different benzimidazole compound represented by the general formula (1) of the present invention or salt thereof as an active ingredient. After air-dried, the seedlings were kept in a thermostatic chamber at 25° C. At 6 days after the dip treatment, the number of hatched larvae per plot was counted, the corrected mortality rate was calculated according to the formula shown below, and the insecticidal efficacy was evaluated according to the criteria of Test Example 2. This test was conducted in triplicate using 10 adults of diamondback moth per plot. Corrected mortality rate (%)=(Number of hatched larvae in a non-treatment plot−Number of hatched larvae in a treatment plot)/(Number of hatched larvae in a non-treatment plot)×100 [Expression 3]

[4] = test system: Green peach aphid (Myzus persicae); assay: Test for control efficacy on green peach aphid (foliar application on Chinese cabbage); settings: 500 ppm, foliar application to potted Chinese cabbage, 6 days after application
Text: Test for Control Efficacy on Green Peach Aphid (Myzus persicae) Chinese cabbage plants were planted in plastic pots (diameter: 8 cm, height: 8 cm), green peach aphids were propagated on the plants, and the number of surviving Green peach aphids in each pot was counted. The benzimidazole compounds represented by the general formula (1) of the present invention or salts thereof were separately dispersed in water and diluted to 500 ppm. The agrochemical dispersions were applied to the foliage of the potted Chinese cabbage plants. After the plants were air-dried, the pots were kept in a greenhouse. At 6 days after the foliar application, the number of surviving Green peach aphids on the Chinese cabbage plant in each pot was counted, the control rate was calculated according to the formula shown below, and the control efficacy was evaluated according to the criteria shown below. Control rate=100−{(T×Ca)/(Ta×C)}×100 [Expression 1] Ta: the number of survivors before the foliar application in a treatment plot T: the number of survivors after the foliar application in a treatment plot Ca: the number of survivors before the foliar application in a non-treatment plot C: the number of survivors after the foliar application in a non-treatment plot Criteria • A: the control rate is 100%. • B: the control rate is 90 to 99%. • C: the control rate is 80 to 89%. • D: the control rate is 50 to 79%.

SMILES: CCS(=O)(=O)n1c(-n2cnc(CCc3ccccc3)c2)nc2ccccc21 [Compound 1-9]
- acaricidal efficacy (corrected mortality rate), activity level [1]: D or higher
- insecticidal efficacy (corrected mortality rate), activity level [2]: D or higher

SMILES: CCS(=O)(=O)n1c(-n2cnc(CCc3ccc(C(F)(F)F)cc3)c2)nc2ccccc21 [Compound 1-11]
- acaricidal efficacy (corrected mortality rate), activity level [1]: D or higher
- insecticidal efficacy (corrected mortality rate), activity level [3]: D or higher

SMILES: CCS(=O)(=O)n1c(-n2cnc(C(F)(C(F)(F)F)C(F)(F)F)c2)nc2ccccc21 [Compound 1-22, 1-ethanesulfonyl-2-(4-heptafluoroisopropylimidazol-1-yl)benzimidazole]
- acaricidal efficacy (corrected mortality rate), activity level [1]: D or higher
- insecticidal efficacy (corrected mortality rate), activity level [2]: D or higher

SMILES: CCS(=O)(=O)n1c(-n2cc(CCc3ccccc3)cn2)nc2ccccc21 [Compound 2-3]
- acaricidal efficacy (corrected mortality rate), activity level [1]: D or higher
- insecticidal efficacy (corrected mortality rate), activity level [3]: D or higher

SMILES: CCS(=O)(=O)n1c(-n2ccc(C(F)(F)F)n2)nc2ccccc21 [Compound 2-12]
- acaricidal efficacy (corrected mortality rate), activity level [1]: D or higher
- insecticidal efficacy (corrected mortality rate), activity level [2]: D or higher

SMILES: CCS(=O)(=O)n1c(-n2nc(C(F)(F)F)cc2C)nc2ccccc21 [Compound 2-17]
- acaricidal efficacy (corrected mortality rate), activity level [1]: D or higher
- insecticidal efficacy (corrected mortality rate), activity level [2]: D or higher

SMILES: CCc1cn(-c2nc3ccccc3n2S(=O)(=O)CC)nc1C(F)(F)F [Compound 2-19]
- acaricidal efficacy (corrected mortality rate), activity level [1]: D or higher
- control efficacy (control rate), activity level [4]: D or higher

SMILES: CCS(=O)(=O)n1c(-n2cc(C3CC3)c(C(F)(F)F)n2)nc2ccccc21 [Compound 2-20]
- acaricidal efficacy (corrected mortality rate), activity level [1]: D or higher
- control efficacy (control rate), activity level [4]: D or higher

SMILES: C=Cc1cn(-c2nc3ccccc3n2S(=O)(=O)CC)nc1C(F)(F)F [Compound 2-21]
- acaricidal efficacy (corrected mortality rate), activity level [1]: D or higher
- insecticidal efficacy (corrected mortality rate), activity level [2]: D or higher

SMILES: CCS(=O)(=O)n1c(-n2cc(CCc3ccccc3)c(C(F)(F)F)n2)nc2ccccc21 [Compound 2-23]
- acaricidal efficacy (corrected mortality rate), activity level [1]: D or higher
- insecticidal efficacy (corrected mortality rate), activity level [3]: D or higher

SMILES: CCS(=O)(=O)n1c(-n2cc(/C=C/C(=O)OC(C)(C)C)c(C(F)(F)F)n2)nc2ccccc21 [Compound 2-24]
- acaricidal efficacy (corrected mortality rate), activity level [1]: D or higher
- control efficacy (control rate), activity level [4]: D or higher

SMILES: CCOC(=O)c1cn(-c2nc3ccccc3n2S(=O)(=O)CC)nc1C(F)(F)F [Compound 2-26]
- acaricidal efficacy (corrected mortality rate), activity level [1]: D or higher
- control efficacy (control rate), activity level [4]: D or higher

SMILES: CCS(=O)(=O)n1c(-n2cc(C(=O)OCC(C)(C)C)c(C(F)(F)F)n2)nc2ccccc21 [Compound 2-28]
- acaricidal efficacy (corrected mortality rate), activity level [1]: D or higher
- control efficacy (control rate), activity level [4]: D or higher

SMILES: CCS(=O)(=O)n1c(-n2cc(C(=O)Oc3c(C)cccc3C)c(C(F)(F)F)n2)nc2ccccc21 [Compound 2-29]
- acaricidal efficacy (corrected mortality rate), activity level [1]: D or higher
- insecticidal efficacy (corrected mortality rate), activity level [2]: D or higher

SMILES: CCS(=O)(=O)n1c(-n2cc(SC(C)C)c(C(F)(F)F)n2)nc2ccccc21 [Compound 2-32]
- acaricidal efficacy (corrected mortality rate), activity level [1]: D or higher
- insecticidal efficacy (corrected mortality rate), activity level [2]: D or higher

SMILES: CCS(=O)(=O)n1c(-n2cc(Br)c(Br)n2)nc2ccccc21 [Compound 2-34]
- acaricidal efficacy (corrected mortality rate), activity level [1]: D or higher
- control efficacy (control rate), activity level [4]: D or higher

SMILES: CCS(=O)(=O)n1c(-n2ccc(OCC(F)(F)C(F)(F)F)n2)nc2ccccc21 [Compound 2-38]
- acaricidal efficacy (corrected mortality rate), activity level [1]: D or higher
- insecticidal efficacy (corrected mortality rate), activity level [3]: D or higher

SMILES: CCS(=O)(=O)n1c(-n2cc(Cl)c(OCC(F)(F)C(F)(F)F)n2)nc2ccccc21 [Compound 2-39]
- acaricidal efficacy (corrected mortality rate), activity level [1]: D or higher
- control efficacy (control rate), activity level [4]: D or higher

SMILES: CCS(=O)(=O)n1c(-n2cc(Br)c(OCC(F)(F)C(F)(F)F)n2)nc2ccccc21 [Compound 2-40]
- acaricidal efficacy (corrected mortality rate), activity level [1]: D or higher
- control efficacy (control rate), activity level [4]: D or higher

SMILES: CCS(=O)(=O)n1c(-n2ccc(C(=O)OC(C)(C)C)n2)nc2ccccc21 [Compound 2-43]
- acaricidal efficacy (corrected mortality rate), activity level [1]: D or higher
- control efficacy (control rate), activity level [4]: D or higher

SMILES: CCc1nn(-c2nc3ccccc3n2S(=O)(=O)CC)cc1C(=O)OC(C)(C)C [Compound 2-49]
- acaricidal efficacy (corrected mortality rate), activity level [1]: D or higher
- insecticidal efficacy (corrected mortality rate), activity level [3]: D or higher

SMILES: CCS(=O)(=O)n1c(-n2cc(C(=O)OC(C)(C)C)c(C(F)F)n2)nc2ccccc21 [Compound 2-51]
- acaricidal efficacy (corrected mortality rate), activity level [1]: D or higher
- control efficacy (control rate), activity level [4]: D or higher

SMILES: CCS(=O)(=O)n1c(-n2cc(C(=O)OC(C)C)c(C(F)(F)F)n2)nc2ccccc21 [Compound 2-53]
- acaricidal efficacy (corrected mortality rate), activity level [1]: D or higher
- control efficacy (control rate), activity level [4]: D or higher

SMILES: CCC(C)(C)OC(=O)c1cn(-c2nc3ccccc3n2S(=O)(=O)CC)nc1C(F)(F)F [Compound 2-54]
- acaricidal efficacy (corrected mortality rate), activity level [1]: D or higher
- control efficacy (control rate), activity level [4]: D or higher

SMILES: CCS(=O)(=O)n1c(-n2cnc(C(F)(F)F)n2)nc2ccccc21 [Compound 3-1]
- acaricidal efficacy (corrected mortality rate), activity level [1]: D or higher
- control efficacy (control rate), activity level [4]: D or higher

From patent US12389911B2, “Benzimidazole compound or salt thereof, agricultural and horticultural insecticidal and acaricidal agent containing said compound, and method for using same” (NIHON NOHYAKU CO., LTD., priority 2019, dated 2025)
